Test results: ChEMBL document CHEMBL1201861, “Genomics of Drug Sensitity in Cancer screening data, Wellcome Trust Sanger Institute”

How the values were obtained:
Test in all cases: cells
C-33-A = assay type: functional, cell-based, Homo sapiens; details: Homo sapiens, C-33-A
Description: SANGER: Inhibition of human C-33-A cell growth in a cell viability assay.

COLO-741 = assay type: functional, cell-based, Homo sapiens; details: Homo sapiens, COLO-741
Description: SANGER: Inhibition of human COLO-741 cell growth in a cell viability assay.

NCI-N87 = assay type: functional, cell-based, Homo sapiens; details: Homo sapiens, NCI-N87
Description: SANGER: Inhibition of human NCI-N87 cell growth in a cell viability assay.

RPMI-8226 = assay type: functional, cell-based; details: Homo sapiens
Description: SANGER: Inhibition of human RPMI-8226 cell growth in a cell viability assay.

NOMO-1 = assay type: functional, cell-based; details: Homo sapiens
Description: SANGER: Inhibition of human NOMO-1 cell growth in a cell viability assay.

8305C = assay type: functional, cell-based, Homo sapiens; details: Homo sapiens, 8305C
Description: SANGER: Inhibition of human 8305C cell growth in a cell viability assay.

KARPAS-299 = assay type: functional, cell-based; details: Homo sapiens
Description: SANGER: Inhibition of human KARPAS-299 cell growth in a cell viability assay.

RXF 393 = assay type: functional, cell-based; details: Homo sapiens
Description: SANGER: Inhibition of human RXF393 cell growth in a cell viability assay.

GAK = assay type: functional, cell-based, Homo sapiens; details: Homo sapiens, GAK
Description: SANGER: Inhibition of human GAK cell growth in a cell viability assay.

EKVX = assay type: functional, cell-based, Homo sapiens; details: Homo sapiens, EKVX
Description: SANGER: Inhibition of human EKVX cell growth in a cell viability assay.

TE-9 = assay type: functional, cell-based, Homo sapiens; details: Homo sapiens, TE-9
Description: SANGER: Inhibition of human TE-9 cell growth in a cell viability assay.

786-0 = assay type: functional, cell-based, Homo sapiens; details: Homo sapiens
Description: SANGER: Inhibition of human 786-0 cell growth in a cell viability assay.

SW837 = assay type: functional, cell-based, Homo sapiens; details: Homo sapiens, SW837
Description: SANGER: Inhibition of human SW837 cell growth in a cell viability assay.

BHT-101 = assay type: functional, cell-based, Homo sapiens; details: Homo sapiens, BHT-101
Description: SANGER: Inhibition of human BHT-101 cell growth in a cell viability assay.

PC-3 = assay type: functional, cell-based, Homo sapiens; details: Homo sapiens, PC-3
Description: SANGER: Inhibition of human PC-3 cell growth in a cell viability assay.

MZ7-mel = assay type: functional, cell-based, Homo sapiens; details: Homo sapiens, MZ7-mel
Description: SANGER: Inhibition of human MZ7-mel cell growth in a cell viability assay.

A2780 = assay type: functional, cell-based, Homo sapiens; details: Homo sapiens, A2780
Description: SANGER: Inhibition of human A2780 cell growth in a cell viability assay.

KURAMOCHI = assay type: functional, cell-based; details: Homo sapiens
Description: SANGER: Inhibition of human KURAMOCHI cell growth in a cell viability assay.

BB30-HNC = assay type: functional, cell-based, Homo sapiens; details: Homo sapiens, BB30-HNC
Description: SANGER: Inhibition of human BB30-HNC cell growth in a cell viability assay.

769-P = assay type: functional, cell-based, Homo sapiens; details: Homo sapiens, 769-P
Description: SANGER: Inhibition of human 769-P cell growth in a cell viability assay.

SK-MEL-2 = assay type: functional, cell-based, Homo sapiens; details: Homo sapiens, SK-MEL-2
Description: SANGER: Inhibition of human SK-MEL-2 cell growth in a cell viability assay.

COLO-829 = assay type: functional, cell-based, Homo sapiens; details: Homo sapiens, COLO-829
Description: SANGER: Inhibition of human COLO-829 cell growth in a cell viability assay.

ES8 = assay type: functional, cell-based, Homo sapiens; details: Homo sapiens, ES8
Description: SANGER: Inhibition of human ES8 cell growth in a cell viability assay.

TE-10 = assay type: functional, cell-based, Homo sapiens; details: Homo sapiens, TE-10
Description: SANGER: Inhibition of human TE-10 cell growth in a cell viability assay.

GI-ME-N = assay type: functional, cell-based, Homo sapiens; details: Homo sapiens, GI-ME-N
Description: SANGER: Inhibition of human GI-ME-N cell growth in a cell viability assay.

HCE-T = assay type: functional, cell-based, Homo sapiens; details: Homo sapiens, HCE-T
Description: SANGER: Inhibition of human HCE-T cell growth in a cell viability assay.

UMUC3 = assay type: functional, cell-based, Homo sapiens; details: Homo sapiens, UMUC3
Description: SANGER: Inhibition of human UM-UC-3 cell growth in a cell viability assay.

SF-295 = assay type: functional, cell-based, Homo sapiens; details: Homo sapiens, SF-295; read-out: IC50
Description: SANGER: Inhibition of human SF295 cell growth in a cell viability assay.

CAL-27 = assay type: functional, cell-based, Homo sapiens; details: Homo sapiens, CAL-27
Description: SANGER: Inhibition of human CAL-27 cell growth in a cell viability assay.

Becker = assay type: functional, cell-based, Homo sapiens; details: Homo sapiens, Becker
Description: SANGER: Inhibition of human Becker cell growth in a cell viability assay.

HCC2218 = assay type: functional, cell-based; details: Homo sapiens
Description: SANGER: Inhibition of human HCC2218 cell growth in a cell viability assay.

GMS-10 = assay type: functional, cell-based, Homo sapiens; details: Homo sapiens, GMS-10
Description: SANGER: Inhibition of human GMS-10 cell growth in a cell viability assay.

NB6 = assay type: functional, cell-based, Homo sapiens; details: Homo sapiens, NB6
Description: SANGER: Inhibition of human NB6 cell growth in a cell viability assay.

HOP-62 = assay type: functional, cell-based, Homo sapiens; details: Homo sapiens, HOP-62
Description: SANGER: Inhibition of human HOP-62 cell growth in a cell viability assay.

IST-MES1 = assay type: functional, cell-based, Homo sapiens; details: Homo sapiens, IST-MES1
Description: SANGER: Inhibition of human IST-MES1 cell growth in a cell viability assay.

SBC-1 = assay type: functional, cell-based; details: Homo sapiens
Description: SANGER: Inhibition of human SBC-1 cell growth in a cell viability assay.

RD = assay type: functional, cell-based, Homo sapiens; details: Homo sapiens, RD
Description: SANGER: Inhibition of human RD cell growth in a cell viability assay.

OCI-AML2 = assay type: functional, cell-based; details: Homo sapiens
Description: SANGER: Inhibition of human OCI-AML2 cell growth in a cell viability assay.

SKG-IIIa = assay type: functional, cell-based, Homo sapiens; details: Homo sapiens, SKG-IIIa
Description: SANGER: Inhibition of human SKG-IIIa cell growth in a cell viability assay.

HuP-T3 = assay type: functional, cell-based, Homo sapiens; details: Homo sapiens, HuP-T3
Description: SANGER: Inhibition of human HuP-T3 cell growth in a cell viability assay.

OVCAR-5 = assay type: functional, cell-based, Homo sapiens; details: Homo sapiens, OVCAR-5
Description: SANGER: Inhibition of human OVCAR-5 cell growth in a cell viability assay.

NCI-H28 = assay type: functional, cell-based, Homo sapiens; details: Homo sapiens, NCI-H28
Description: SANGER: Inhibition of human NCI-H28 cell growth in a cell viability assay.

EW-16 = assay type: functional, cell-based, Homo sapiens; details: Homo sapiens, EW-16
Description: SANGER: Inhibition of human EW-16 cell growth in a cell viability assay.

HCC38 = assay type: functional, cell-based, Homo sapiens; details: Homo sapiens, HCC38
Description: SANGER: Inhibition of human HCC38 cell growth in a cell viability assay.

LB1047-RCC = assay type: functional, cell-based, Homo sapiens; details: Homo sapiens, LB1047-RCC
Description: SANGER: Inhibition of human LB1047-RCC cell growth in a cell viability assay.

Calu-3 = assay type: functional, cell-based, Homo sapiens; details: Homo sapiens, Calu-3
Description: SANGER: Inhibition of human Calu-3 cell growth in a cell viability assay.

HD-MY-Z = assay type: functional, cell-based, Homo sapiens; details: Homo sapiens, HD-MY-Z
Description: SANGER: Inhibition of human HD-MY-Z cell growth in a cell viability assay.

LK-2 = assay type: functional, cell-based, Homo sapiens; details: Homo sapiens, LK-2
Description: SANGER: Inhibition of human LK-2 cell growth in a cell viability assay.

NCI-H2052 = assay type: functional, cell-based, Homo sapiens; details: Homo sapiens, NCI-H2052
Description: SANGER: Inhibition of human NCI-H2052 cell growth in a cell viability assay.

L-363 = assay type: functional, cell-based; details: Homo sapiens
Description: SANGER: Inhibition of human L-363 cell growth in a cell viability assay.

## CN(c1ncccc1CNc1nc(Nc2ccc3c(c2)CC(=O)N3)ncc1C(F)(F)F)S(C)(=O)=O [PF-00562271]
C-33-A
  IC50: > 2560 nM
COLO-741
  IC50: > 2560 nM
NCI-N87
  IC50: > 2560 nM
RPMI-8226
  IC50: > 2560 nM
NOMO-1
  IC50: > 2560 nM
8305C
  IC50: 1100 nM
KARPAS-299
  IC50: > 2560 nM
RXF 393
  IC50: > 2560 nM
GAK
  IC50: > 2560 nM
EKVX
  IC50: > 2560 nM
TE-9
  IC50: > 2560 nM
786-0
  IC50: > 2560 nM
SW837
  IC50: > 2560 nM
BHT-101
  IC50: > 2560 nM
PC-3
  IC50: > 2560 nM
MZ7-mel
  IC50: > 2560 nM
A2780
  IC50: > 2560 nM
KURAMOCHI
  IC50: > 2560 nM
BB30-HNC
  IC50: > 2560 nM
769-P
  IC50: > 2560 nM
SK-MEL-2
  IC50: > 2560 nM
COLO-829
  IC50: 752 nM
ES8
  IC50: > 2560 nM
TE-10
  IC50: > 2560 nM
GI-ME-N
  IC50: > 2560 nM
HCE-T
  IC50: > 2560 nM
UMUC3
  IC50: > 2560 nM
SF-295
  IC50: > 2560 nM
CAL-27
  IC50: > 2560 nM
Becker
  IC50: > 2560 nM
HCC2218
  IC50: > 2560 nM
GMS-10
  IC50: > 2560 nM
NB6
  IC50: > 2560 nM
HOP-62
  IC50: > 2560 nM
IST-MES1
  IC50: > 2560 nM
SBC-1
  IC50: > 2560 nM
RD
  IC50: > 2560 nM
OCI-AML2
  IC50: > 2560 nM
SKG-IIIa
  IC50: > 2560 nM
HuP-T3
  IC50: > 2560 nM
OVCAR-5
  IC50: > 2560 nM
NCI-H28
  IC50: > 2560 nM
EW-16
  IC50: 2040 nM
HCC38
  IC50: > 2560 nM
LB1047-RCC
  IC50: > 2560 nM
Calu-3
  IC50: > 2560 nM
HD-MY-Z
  IC50: > 2560 nM
LK-2
  IC50: > 2560 nM
NCI-H2052
  IC50: > 2560 nM
L-363
  IC50: > 2560 nM

## CCC1=C[C@@H]2CN(C1)Cc1c([nH]c3ccccc13)[C@@](C(=O)OC)(c1cc3c(cc1OC)N(C)[C@H]1[C@@](O)(C(=O)OC)[C@H](OC(C)=O)[C@]4(CC)C=CCN5CC[C@]31[C@@H]54)C2 [VINORELBINE]
C-33-A
  IC50: 7.31 nM
COLO-741
  IC50: 35.7 nM
NCI-N87
  IC50: 44.1 nM
RPMI-8226
  IC50: 17 nM
NOMO-1
  IC50: 19 nM
8305C
  IC50: 4.92 nM
KARPAS-299
  IC50: > 64 nM
RXF 393
  IC50: 5.06 nM
GAK
  IC50: > 64 nM
EKVX
  IC50: > 64 nM
TE-9
  IC50: 1.08 nM
786-0
  IC50: 2.99 nM
SW837
  IC50: > 64 nM
BHT-101
  IC50: > 64 nM
PC-3
  IC50: > 64 nM
MZ7-mel
  IC50: 10.2 nM
A2780
  IC50: 6.38 nM
KURAMOCHI
  IC50: 2.81 nM
BB30-HNC
  IC50: 0.399 nM
769-P
  IC50: 16.9 nM
SK-MEL-2
  IC50: 7.18 nM
COLO-829
  IC50: 0.105 nM
ES8
  IC50: 2.72 nM
TE-10
  IC50: 3.62 nM
GI-ME-N
  IC50: 5.76 nM
HCE-T
  IC50: > 64 nM
UMUC3
  IC50: 21.2 nM
SF-295
  IC50: 12 nM
CAL-27
  IC50: 32 nM
Becker
  IC50: 5.39 nM
HCC2218
  IC50: 57.1 nM
GMS-10
  IC50: > 64 nM
NB6
  IC50: > 64 nM
HOP-62
  IC50: 1.93 nM
IST-MES1
  IC50: > 64 nM
SBC-1
  IC50: > 64 nM
RD
  IC50: 5.42 nM
OCI-AML2
  IC50: 10.3 nM
SKG-IIIa
  IC50: > 64 nM
HuP-T3
  IC50: > 64 nM
OVCAR-5
  IC50: > 64 nM
NCI-H28
  IC50: > 64 nM
EW-16
  IC50: 4.35 nM
HCC38
  IC50: 4.87 nM
LB1047-RCC
  IC50: > 64 nM
Calu-3
  IC50: 18 nM
HD-MY-Z
  IC50: 29.2 nM
LK-2
  IC50: 12.5 nM
NCI-H2052
  IC50: 61 nM
L-363
  IC50: 12.4 nM
